The source of these data is patent EP4635969A1, “NOVEL GLUCOCORTICOID, METHOD FOR PREPARING SAME, AND USE THEREOF” (Tianjin Pharmaceutical Biotechnology Co., Ltd., priority 2022, dated 2024).

Molecules are shown by their SMILES. pEC50: −log10 of the molar value.

This assay concerns the target T1, glucocorticoid receptor (GR) (Homo sapiens, UniProt P04150).
T1 sequence (P04150 521-777): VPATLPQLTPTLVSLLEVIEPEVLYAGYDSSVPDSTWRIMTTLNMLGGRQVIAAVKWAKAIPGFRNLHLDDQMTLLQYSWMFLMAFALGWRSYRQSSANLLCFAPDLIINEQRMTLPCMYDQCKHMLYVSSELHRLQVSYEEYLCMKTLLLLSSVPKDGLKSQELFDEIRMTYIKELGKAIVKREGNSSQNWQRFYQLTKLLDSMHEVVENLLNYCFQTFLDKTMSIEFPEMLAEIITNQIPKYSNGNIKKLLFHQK
In words: Assay for agonist activity on glucocorticoid receptor (luciferase reporter, HEK293 cells transfected with pBIND-GR plasmid). In kind it is cell-based. The settings on record: HEK293 cells transfected with pBIND-GR, luciferase signal; read-out: GR agonist EC50. As to the method: Pharmacological Example 1: Assay for Agonist Activity on Glucocorticoid Receptor (GR)
The test compounds were subjected to a 4-fold serial dilution starting from an initial concentration of 10 µ M, generating a 10-point concentration gradient with duplicate wells for each concentration. The blank control consisted of 0.1 % DMSO.
The HEK293 stable cell line […] transfected with glucocorticoid receptor (GR) (ICE Bioscience, Lot No. TYP-20220519) was cultured in Dulbecco's Modified Eagle Medium (DMEM) supplemented with 10% fetal bovine serum (FBS) and 200 µ g/ml Hygromycin B in a cell incubator containing 5% CO2 at 37 °C. The spent medium was aspirated and the cells were washed once with phosphate-buffered saline (PBS). Then, 1 mL of TrypLE™ Express solution was added, and the cells were incubated at 37 °C for approximately 2 min. When the cells detached from the bottom of the cell culture dish, approximately 5 mL of pre-warmed complete medium at 37 °C was added. The cell suspension was gently pipetted with a pipette to dissociate clumped cells. The cell suspension was transferred to a sterile centrifuge tube and centrifuged at 1000 rpm for 5 min to pellet the cells for experiments or subculture.
HEK293 cells were digested and seeded into 6-cm culture dishes. The pBIND-GR plasmid was transfected into the HEK293 cells using a transfection reagent, resulting in HEK293 cells successfully transfected with the pBIND-GR plasmid. The cells were resuspended in phenol red-free DMEM medium containing 5% charcoal-stripped serum, counted, and then seeded into 96-well plates. The test compounds were added, and the plates were then incubated in an incubator. The luminescence signal values were measured using a multimode microplate reader following the instructions of the luciferase assay kit. The EC50 values of each test compound were calculated using the nonlinear fitting formula with GraphPad Prism 8.0 software.
Take `C[C@]12C=CC(=O)C=C1[C@@H](F)C[C@H]1[C@@H]3C[C@H]4OC(C5CCN(C(=O)C6COC(=O)C6)CC5)O[C@@]4(C(=O)CO)[C@@]3(C)C[C@H](O)[C@@]12F` (stereo partly drawn) [Compound 1, (2S,6aS,6bR,7S,8aS,8bS,11aR,12aS,12bS)-2,6b-Difluoro-7-hydroxy-8b-(2-hydroxyacetyl)-6a,8a-dimethyl-10-(1-(5-oxotetrahydrofuran-3-carbonyl)piperidin-4-yl)-1,2,6a,6b,7,8,8a,8b,11a,12,12a,1 2b-dodecahydro-4H-naphtho[2',1':4,5]indeno[1,2-d][1,3]dioxol-4-one]: the pEC50 (as a rule, the EC50 on a negative log10 scale, so that one unit is a factor of ten) was 7.69.

In the case of `C[C@]12C=CC(=O)C=C1[C@@H](F)C[C@H]1[C@@H]3C[C@H]4OC(c5ccc(NC(=O)C6COC(=O)C6)cc5)O[C@@]4(C(=O)CO)[C@@]3(C)C[C@H](O)[C@@]12F` (stereo partly drawn) [Compound 2, N-(4-((2S,6aS,6bR,7S,8aS,8bS,11aR,12aS,12bS)-2,6b-Difluoro-7-hydroxy-8b-(2-hydroxyacetyl)-6a,8a-dimethyl-4-oxo-2,4,6a,6b,7,8,8a,8b,11a,12,12a,12b-dodecahydro-1H-naphtho[2',1':4,5]indeno[1,2-d][1,3]dioxol-10-yl)phenyl)-5-oxotetrahydrofuran-3-carboxamide], the pEC50 is 7.91.

For `C[C@]12C=CC(=O)C=C1[C@@H](F)C[C@H]1[C@@H]3C[C@H]4OC(C5CCC(NC(=O)C6COC(=O)C6)CC5)O[C@@]4(C(=O)CO)[C@@]3(C)C[C@H](O)[C@@]12F` (stereo partly drawn) [Compound 3, N-(4-((2S,6aS,6bR,7S,8aS,8bS,11aR,12aS,12bS)-2,6b-Difluoro-7-hydroxy-8b-(2-hydroxyacetyl)-6a,8a-dimethyl-4-oxo-2,4,6a,6b,7,8,8a,8b,11a,12,12a,12b-dodecahydro-1H-naphtho[2',1':4,5]indeno[1,2-d][1,3]dioxol-10-yl)cyclohexyl)-5-oxotetrahydrofuran-3-carboxamide], the pEC50 is 7.75.

Turning to `C[C@]12C=CC(=O)C=C1[C@@H](F)C[C@H]1[C@@H]3C[C@H]4OC(C5CCC(NC(=O)C6COC(=O)C6)CC5)O[C@@]4(C(=O)SCF)[C@@]3(C)C[C@H](O)[C@@]12F` (stereo partly drawn) [Compound 6, S-(Fluoromethyl) (2S,6aS,6bR,7S,8aS,8bS,11aR,12aS,12bS)-2,6b-difluoro-7-hydroxy-6a,8a-dimethyl-4-oxo-10-(4-(5-oxotetrahydrofuran-3-carboxamido)cyclohexyl)-1,2,4,6a,6b,7,8,8a,11a,12,12a,12b-dodecahydro-8bH-naphtho[2',1':4,5]indeno[1,2-d][1,3]dioxole-8b-carbothioate], the negative logarithm of the EC50 (pEC50) was 8.06.

Turning to `C[C@]12C=CC(=O)C=C1[C@@H](F)C[C@H]1[C@@H]3C[C@H]4OC(c5ccc(COC6COC(=O)C6)cc5)O[C@@]4(C(=O)CO)[C@@]3(C)C[C@H](O)[C@@]12F` (stereo partly drawn) [Compound 10, (2S,6aS,6bR,7S,8aS,8bS,11aR,12aS,12bS)-2,6b-Difluoro-7-hydroxy-8b-(2-hydroxyacetyl)-6a,8a-dimethyl-10-(4-(((5-oxotetrahydrofuran-3-yl)oxy)methyl)phenyl)-1,2,6a,6b,7,8,8a,8b,11a,12,12a,1 2b-dodecahydro-4H-naphtho[2',1':4,5]indeno[1,2-d][1,3]dioxol-4-one], the pEC50 was 8.58.

Regarding `C[C@]12C=CC(=O)C=C1[C@@H](F)C[C@H]1[C@@H]3C[C@H]4OC(c5ccc(CNC6COC(=O)C6)cc5F)O[C@@]4(C(=O)CO)[C@@]3(C)C[C@H](O)[C@@]12F` (stereo partly drawn) [Compound 12, (2S,6aS,6bR,7S,8aS,8bS,11aR,12aS,12bS)-2,6b-Difluoro-10-(2-fluoro-4-(((5-oxotetrahydrofuran-3-yl)amino)methyl)phenyl)-7-hydroxy-8b-(2-hydroxyacetyl)-6a,8a-dimethyl-1,2,6a,6b,7,8,8a,8b,1 1a,12,12a,12b-dodecahydro-4H-naphtho[2',1':4,5]indeno[1,2-d][1,3]dioxol-4-one], the pEC50 was 8.39.

For the compound `C[C@]12C=CC(=O)C=C1[C@@H](F)C[C@H]1[C@@H]3C[C@H]4OC(c5ccc(NCC6CCOC6=O)cc5)O[C@@]4(C(=O)CO)[C@@]3(C)C[C@H](O)[C@@]12F` (stereo partly drawn) [Compound 15, (2S,6aS,6bR,7S,8aS,8bS,11aR,12aS,12bS)-2,6b-Difluoro-7-hydroxy-8b-(2-hydroxyacetyl)-6a,8a-dimethyl-10-(4-(((2-oxotetrahydrofuran-3-yl)methyl)amino)phenyl)-1,2,6a,6b,7,8,8a,8b,11a,12,12 a,12b-dodecahydro-4H-naphtho[2',1':4,5]indeno[1,2-d][1,3]dioxol-4-one], the pEC50 was 8.21.

In the case of `C[C@]12C=CC(=O)C=C1CC[C@H]1[C@@H]3C[C@H]4OC(c5ccc(COC6COC(=O)C6)cc5)O[C@@]4(C(=O)CO)[C@@]3(C)C[C@H](O)[C@@]12F` (stereo partly drawn) [Compound 19, (6aS,6bR,7S,8aS,8bS,11aR,12aS,12bS)-6b-Fluoro-7-hydroxy-8b-(2-hydroxyacetyl)-6a,8a-dimethyl-10-(4-(((5-oxotetrahydrofuran-3-yl)oxy)methyl)phenyl)-1,2,6a,6b,7,8,8a,8b,11a,12,12a,12b-do decahydro-4H-naphtho[2',1':4,5]indeno[1,2-d][1,3]dioxol-4-one], the pEC50 is 9.04.

Consider `C[C@]12C=CC(=O)C=C1CC[C@H]1[C@@H]3C[C@H]4OC(c5ccc(COC6COC(=O)C6)cc5)O[C@@]4(C(=O)CO)[C@@]3(C)C[C@H](O)[C@@]12Cl` (stereo partly drawn) [Compound 25, (6aS,6bR,7S,8aS,8bS,11aR,12aS,12bS)-6b-Chloro-7-hydroxy-8b-(2-hydroxyacetyl)-6a,8a-dimethyl-10-(4-(((5-oxotetrahydrofuran-3-yl)oxy)methyl)phenyl)-1,2,6a,6b,7,8,8a,8b,11a,12,12a,12b-do decahydro-4H-naphtho[2',1':4,5]indeno[1,2-d][1,3]dioxol-4-one], for which the pEC50 was 8.89.

On to `C[C@]12C=CC(=O)C=C1CC[C@H]1[C@@H]3C[C@H]4OC(c5ccc(CNC6COC(=O)C6)cc5)O[C@@]4(C(=O)CO)[C@@]3(C)C[C@H](O)[C@@]12Cl` (stereo partly drawn) [Compound 27, (6aS,6bR,7S,8aS,8bS,11aR,12aS,12bS)-6b-Chloro-7-hydroxy-8b-(2-hydroxyacetyl)-6a,8a-dimethyl-10-(4-(((5-oxotetrahydrofuran-3-yl)amino)methyl)phenyl)-1,2,6a,6b,7,8,8a,8b,11a,12,12a,12b-dodecahydro-4H-naphtho[2',1':4,5]indeno[1,2-d][1,3]dioxol-4-one], for which the pEC50 was 8.74.

Turning to `C[C@]12C=CC(=O)C=C1CC[C@@H]1[C@@H]2[C@@H](O)C[C@@]2(C)[C@H]1C[C@H]1OC(c3ccc(COC4CCOC4=O)cc3)O[C@]12C(=O)CO` (stereo partly drawn) [Compound 28, (6aR,6bS, 7S,8aS,8bS,11aR,12aS,12bS)-7-Hydroxy-8b-(2-hydroxyacetyl)-6a,8a-dimethyl-10-(4-(( (2-oxotetrahydrofuran-3-yl)oxy)methyl)phenyl)-1,2,6a,6b,7,8,8a,8b,11a,12,12a,12b-dodecahydro-4H-naphtho[2',1':4,5]indeno[1,2-d][1,3]dioxol-4-one], the pEC50 is 8.37.

`C[C@]12C=CC(=O)C=C1CC[C@@H]1[C@@H]2[C@@H](O)C[C@@]2(C)[C@H]1C[C@H]1OC(c3ccc(CSC4CCOC4=O)cc3)O[C@]12C(=O)CO` (stereo partly drawn) [Compound 29, (6aR,6bS, 7S,8aS,8bS,11aR,12aS,12bS)-7-Hydroxy-8b-(2-hydroxyacetyl)-6a,8a-dimethyl-10-(4-(( (2-oxotetrahydrofuran-3-yl)thio)methyl)phenyl)-1,2,6a,6b,7,8,8a,8b,11a,12,12a,12b-dodecahydro-4H-naphtho[2',1':4,5]indeno[1,2-d][1,3]dioxol-4-one]: the pEC50 was 8.44.

On to `C[C@]12C=CC(=O)C=C1CC[C@@H]1[C@@H]2[C@@H](O)C[C@@]2(C)[C@H]1C[C@H]1OC(c3ccc(CNC4CCOC4=O)cc3)O[C@]12C(=O)CO` (stereo partly drawn) [Compound 30, (6aR,6bS, 7S,8aS,8bS,11aR,12aS,12bS)-7-Hydroxy-8b-(2-hydroxyacetyl)-6a,8a-dimethyl-10-(4-(( (2-oxotetrahydrofuran-3-yl)amino)methyl)phenyl)-1,2,6a,6b,7,8,8a,8b,11a,12,12a,12b-dodecahydr o-4H-naphtho[2',1':4,5]indeno[1,2-d][1,3]dioxol-4-one], for which the pEC50 is 8.14.

`C[C@]12C=CC(=O)C=C1CC[C@@H]1[C@@H]2[C@@H](O)C[C@@]2(C)[C@H]1C[C@H]1OC(c3ccc(COC4COC(=O)C4)cc3)O[C@]12C(=O)CO` (stereo partly drawn) [Compound 31, (6aR,6bS, 7S,8aS,8bS,11aR,12aS,12bS)-7-Hydroxy-8b-(2-hydroxyacetyl)-6a,8a-dimethyl-10-(4-(( (5-oxotetrahydrofuran-3-yl)oxy)methyl)phenyl)-1,2,6a,6b,7,8,8a,8b,11a,12,12a,12b-dodecahydro-4H-naphtho[2',1':4,5]indeno[1,2-d][1,3]dioxol-4-one]: the pEC50 is 8.09.
